Patent EP0181109B1, “N6-benzopyrano- and benzothiopyrano-adenosines” (WARNER-LAMBERT COMPANY, priority 1984, dated 1986)

Experiments:
adenosine A2 receptor = biological target: T1, adenosine A2 receptor (Rattus norvegicus, UniProt P30543); assay: Adenosine Receptor Binding - A2 Receptor Affinity (RBA2), [3H]NECA displacement in striatal membranes; conditions: 4 nM [3H]NECA, 50 nM N6-cyclopentyladenosine, 60 minutes at 25°C, read-out: RBA-2 (IC50, A2 receptor affinity)
T1 construct: Brains were thawed and then kept on ice while the striata were dissected out; tissue Pel-Freez (Rogers, Arkansas); host or cells: rat striatum (membranes)
Procedure: Brains from 200-500 g mixed sex Sprague-Dawley rats were purchased from Pel-Freez (Rogers, Arkansas). Fresh brains from male Long-Evans hooded rats (Blue Spruce Farms, Altamont, NY) gave essentially identical results. Brains were thawed and then kept on ice while the striata were dissected out. Striata were disrupted in 10 vol of ice-cold 50 mM Tris·HCl (pH 7.7 at 25°C, pH 8.26 at 5°C) (Tris) for 30 seconds in a Polytron PT―10 (Brinkmann) at setting 5. The suspension was centrifuged at 50,000 xg for ten minutes, the supernatant discarded, the pellet resuspended in 10 vol ice-cold Tris as above, recentrifuged, resuspended at 1 g/5 ml, and stored in plastic vials at -70°C (stable for at least six months). When needed, tissue was thawed at room temperature, disrupted in a Polytron, and kept on ice until used.
All incubations were for 60 minutes at 25°C in 12 x 75 mm glass tubes containing 1 ml Tris with 5 mg original tissue weight of rat weight of rat striatal membranes, 4 nM [^3H]-N-ethyl adenosine-5'-carboxamide ([^3H]NECA), 50 nM N^s-cyclopentyladenosine (to eliminate A1 receptor binding), 10 mM MgCI2, 0.1 units/ml of adenosine deaminase and 1% dimethylsulfoxide. N^6-Cyclopentyladenosine was dissolved at 10 mM in 0.02 N HCI and diluted in Tris. Stock solutions and dilutions of N^6-cyclopentyladenosine could be stored at -20°C for several months. Test compounds were dissolved at 10 mM in dimethylsulfoxide on the same day as the experiment, and diluted in dimethylsulfoxide to 100x the final incubation concentration. Control incubations received an equal volume (10 µl) of dimethylsulfoxide; the resulting concentration of dimethylsulfoxide had no effect on binding. [^3H]NECA was diluted to 40 nM in Tris. The membrane suspension (5 mg/0.79 ml) contained sufficient MgC12 and adenosine deaminase to give 10 mM and 0.1 units/ml, respectively, final concentration in the incubation. […] After all additions, the rack of tubes was vortexed, and the tubes were then incubated for 60 min at 25°C in a shaking water bath. The rack of tubes was vortexed an additional time halfway through the incubation.
Incubations were terminated by filtration through 2.4 cm GF/B filters under reduced pressure. Each tube was filtered as follows: the contents of the tube were poured onto the filter, 4 ml of ice-cold Tris were added to the tube and the contents poured onto the filter, and the filter was washed twice with 4 ml of ice-cold Tris. The filtration was complete in about 12 seconds. Filters were put in scintillation vials, 8 ml of Formula 947 scintillation fluid added, and the vials left overnight, shaken, and counted in a liquid scintillation counter at 40% efficiency.
Nonspecific binding was defined as binding in the presence of […] N^6-cyclopentyladenosine, and specific binding was defined as total binding minus nonspecific binding. The IC50 was calculated by weighted nonlinear least squares curve-fitting to the mass action equation. [formula] • where Y is cpm bound • T is cpm total binding without drug • S is cpm specific binding without drug • D is the concentration of drug • and K is the IC50 of the drug Weighting factors were calculated under the assumption that the standard deviation was proportional to the predicted value of Y. Nonspecific binding was treated as a very large (infinite) concentration of drug in the computer analysis.

adenosine A1 receptor = biological target: T2, adenosine A1 receptor (Rattus norvegicus, UniProt P25099); assay: Adenosine Receptor Binding - A1 Receptor Affinity (RBA 1), [3H]-CHA displacement; conditions: rat whole brain membranes, 1.0 nM [3H]-CHA, one hour at 25°C
T2 construct: Whole brain minus cerebellum and brainstem from male Long Evans rats (150-200 g) was homogenized; from tissue; host or cells: rat whole brain minus cerebellum and brainstem (membrane homogenate)
T2 sequence (P25099 1-326): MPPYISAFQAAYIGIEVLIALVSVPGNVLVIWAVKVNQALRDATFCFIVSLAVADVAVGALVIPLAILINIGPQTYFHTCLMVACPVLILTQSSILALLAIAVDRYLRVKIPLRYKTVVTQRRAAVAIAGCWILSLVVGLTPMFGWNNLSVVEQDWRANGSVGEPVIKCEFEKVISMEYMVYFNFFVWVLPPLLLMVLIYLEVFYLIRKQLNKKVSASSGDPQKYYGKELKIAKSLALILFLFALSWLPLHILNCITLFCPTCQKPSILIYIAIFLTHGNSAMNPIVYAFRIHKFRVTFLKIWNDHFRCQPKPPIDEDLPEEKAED
Procedure: Whole brain minus cerebellum and brainstem from male Long Evans rats (150-200 g) was homogenized in 30 volumes of ice-cold 0.05 M Tris-HCI buffer pH 7.7 using a Brinkman Polytron PT-10, (setting number 6 for 20 seconds) and centrifuged for ten minutes at 20,000 x g (Sorvall RC-2), 4°C. The supernatant was discarded, and the pellet was resuspended and centrifuged as before. The pellet was resuspended in 20 ml Tris-HCI buffer containing two International Units/ml of adenosine deaminase (Sigma Type III from calf intestinal mucosa), incubated at 37°C for 30 minutes, then subsequently at 0°C for ten minutes. The homogenate was again centrifuged, and the final pellet was resuspended in ice-cold 0.05 M Tris-HCI buffer pH 7.7 to a concentration of 20 mg/ml original wet tissue weight and used immediately.
Tissue homogenate (10 mg/ml) was incubated in 0.05 M Tris-HCI buffer pH 7.7 containing 1.0 nM [^3H]-N^6-cyclohexyladenosine (^3H]-CHA) with or without test agents in triplicate for one hour at 25°C. Incubation volume was 2 ml. Unbound [^3H]-CHA was separated by rapid filtration under reduced pressure through Whatman glass fiber (GF/B) filters. The filters were rinsed three times with 5 ml of ice cold 0.05 M Tris-HCI buffer pH 7.7. The radio-labele ligand retained on the filter was measured by liquid scintillation spectrophotometry after shaking the filters for one hour or longer on a mechanical shaker in 10 ml of Beckman Ready-Solv HP scintillation cocktail.
Nonspecific binding was defined as the binding which occurred in the presence of 1 mM theophylline. The concentration of test agent which inhibited 50% of the specific binding (IC50) was determined by nonlinear computer curve fit. The Scatchard plot was calculated by linear regression of the line obtained by plotting the amount of radioligand bound (pmoles/gram of tissue) versus
• bound radioligand • free radioligand Since the amount of radioligand bound was a small fraction of the total amount added, free radioligand was defined as the concentration (nM) of radioligand added to the incubation mixture. The Hill coefficient was calculated by linear regression of the line obtained by plotting the log of the bound radioligand vs the log of the • bound radioligand • Bmax - bound radioligand • The maximal number of binding sites (Bmax) was calculated from the Scatchard plot.

T1 sequence (P30543 whole entry): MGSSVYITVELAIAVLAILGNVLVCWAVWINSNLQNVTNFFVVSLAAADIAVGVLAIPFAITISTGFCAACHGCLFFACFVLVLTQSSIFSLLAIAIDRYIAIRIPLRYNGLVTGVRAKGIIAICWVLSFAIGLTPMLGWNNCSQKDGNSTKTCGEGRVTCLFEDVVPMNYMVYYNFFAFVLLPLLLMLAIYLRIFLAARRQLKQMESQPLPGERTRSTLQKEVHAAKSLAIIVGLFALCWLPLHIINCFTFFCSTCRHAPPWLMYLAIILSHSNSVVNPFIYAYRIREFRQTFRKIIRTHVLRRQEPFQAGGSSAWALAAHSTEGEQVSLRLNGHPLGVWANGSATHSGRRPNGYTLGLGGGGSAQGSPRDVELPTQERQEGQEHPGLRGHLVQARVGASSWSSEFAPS

IC50 (adenosine A2 receptor): 1540 nM
IC50 (adenosine A1 receptor): 188 nM
Compound: Cc1ccc(C(C)C)c2c1CC(Nc1ncnc3c1ncn3[C@@H]1O[C@H](CO)[C@@H](O)[C@H]1O)CO2 (some centres unmarked) [Example 12, N^6-[8-lsopropyl-5-methyl-3-chromanylamino]adenosine]
